Patent publication US11278504B1, “Treatment of a lionfish sting and formulations for use thereof” (priority 2019, dated 2022)

Assays:
TRPV1 [1] = target: T1, TRPV1 (Mus musculus, UniProt Q704Y3); type: cell-based, mice
Method: To test the TRPV1 receptor antagonist, changes in intracellular calcium concentrations in single cells were recorded as changes in GCaMP6f fluorescence. Exposure to the antagonist (10 μM) and image analysis were performed in a manner similar to the bradykinin (BK) receptor antagonist described above. The TRPV1 receptor agonist capsaicin (1 μM) and lionfish venom were applied during 1 second over the imaging region.

TRPV1 [2] = target: T1, TRPV1; type: in vivo, mice; conditions: 30 mg/kg intraperitoneal; 44 μg venom intraplantar; P=0.841 vs vehicle
Method: Protein concentration in the venom extract was determined to be 2.2 μg/μL using the Bio-Rad DC assay. Mice (12-weeks old C57BL/6 males and females, The Jackson Laboratory) were placed in an observation chamber on a glass platform, under which a mirror was placed at a 45° angle so as to show the hind paw of the mouse to the recording videocamera. Once the mice were acclimatized to the chamber, they were taken out and injected in the ventral aspect of their left hind paw with a 20 μl solution of the crude or diluted venom (44 or 4.4 μg/20 μl). The venom was extracted in sterile physiological saline (0.9% NaCl) and the same vehicle was used for dilutions.

P2X3 receptors = target: T2, P2X3 receptors (Mus musculus, UniProt Q3UR32); type: cell-based
T2 construct: endogenous in cells; host or cells: primary DRG cultures of TRPV1-Cre::GCaMP6f mice
T2 sequence (Q3UR32 1-397): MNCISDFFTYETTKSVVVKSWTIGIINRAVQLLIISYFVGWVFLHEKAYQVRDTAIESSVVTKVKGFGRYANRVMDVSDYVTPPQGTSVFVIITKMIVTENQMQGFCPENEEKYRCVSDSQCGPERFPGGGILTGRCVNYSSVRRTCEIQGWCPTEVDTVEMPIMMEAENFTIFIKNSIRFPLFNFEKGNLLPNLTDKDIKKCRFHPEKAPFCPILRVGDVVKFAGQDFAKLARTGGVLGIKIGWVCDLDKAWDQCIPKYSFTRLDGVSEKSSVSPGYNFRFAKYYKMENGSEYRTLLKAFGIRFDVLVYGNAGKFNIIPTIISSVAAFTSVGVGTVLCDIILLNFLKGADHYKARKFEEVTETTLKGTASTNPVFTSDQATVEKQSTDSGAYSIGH
Method: Cre-dependent GCaMP6f mice (Ai95D; Jackson Labs) were crossed with TRPV1-Cre mice to express GCaMP6f in all nociceptors. In TRPV1-Cre::GCaMP6f mice, GCaMP6f expression is not limited to cells that are TRPV1-positive at maturity, because TRPV1 is expressed broadly amongst nociceptors early in development.
DRG cultures were grown on 35 mm dishes. On the 3rd day, the cultures were treated with complexes of predesigned siRNA molecules directed against mouse P2X3 or a non-targeting control siRNA (Qiagen FlexiTube siRNA final concentration 100 nM) and 2 ul of HiPerFect transfection reagent. The cells were incubated with the transfection complexes for 48 to 72 hours with addition of fresh media 24 h post-transfection.

P2X3 = target: T3, P2X3 (Mus musculus, UniProt Q3UR32); assay: Spontaneous pain assay, intraplantar AF-353 before or after lionfish venom; type: in vivo, mice; conditions: AF-353 3 mM in 20 μL intraplantar 30 minutes prior or within 2 minutes after 66 μg venom; 1 hour
T3 construct: from tissue; host or cells: living mice, hind paw (whole animal, behavioural read-out)
Method: AF-353 was prepared in a stock solution of 300 mM in DMSO and diluted to 3 mM in physiological saline for at the time of experimentation. Mice were injected with AF-353 intraplantarly either 30 minutes prior to injection of lionfish venom, to determine whether the compound could be used as a prophylactic treatment against lionfish envenomations, or immediately (within 2 minutes) after injection of lionfish venom in the paw, in order to determine whether the compound could be used as a treatment after lionfish envenomations. During the experiment, mice were placed on a glass surface with a mirror placed underneath at a 45-degree angle and kept in round Plexi-glass restrainers. A video camera filmed the animals' spontaneous pain behaviour for an hour. The amount of time the mice spent licking their paws was quantified by two independent and blinded experimenters.
Mice were injected with the vehicle (Veh) for AF-353 (DMSO) 30 minutes prior to injection of the Veh for the venom (physiological saline) (empty squares), venom (Vnm) followed by Veh (DMSO; black squares), AF-353 (AF, 3 mM in a total volume of 20 μL) followed by venom (light grey squares), or venom followed by AF-353 (dark grey squares). n=5 mice per group. The dose of venom injected was 66 μg of crude venom in a total volume of 20 μL (veh. saline). […] Stats: ***=P<0.001; **=P=0.009. Unpaired t test.

P2X3 receptor = target: T4, P2X3 receptor (Homo sapiens, UniProt P56373); assay: Calcium imaging of cultured human nociceptors exposed to lionfish venom; type: cell-based; conditions: AF-353 300 nM, 8-minute incubation; p<0.001 Fisher's exact test
T4 construct: dorsal root ganglia were isolated from human organ donors and placed in culture; endogenous in cells; host or cells: primary sensory neurons cultured from human donor dorsal root ganglia
T4 sequence (P56373 whole entry): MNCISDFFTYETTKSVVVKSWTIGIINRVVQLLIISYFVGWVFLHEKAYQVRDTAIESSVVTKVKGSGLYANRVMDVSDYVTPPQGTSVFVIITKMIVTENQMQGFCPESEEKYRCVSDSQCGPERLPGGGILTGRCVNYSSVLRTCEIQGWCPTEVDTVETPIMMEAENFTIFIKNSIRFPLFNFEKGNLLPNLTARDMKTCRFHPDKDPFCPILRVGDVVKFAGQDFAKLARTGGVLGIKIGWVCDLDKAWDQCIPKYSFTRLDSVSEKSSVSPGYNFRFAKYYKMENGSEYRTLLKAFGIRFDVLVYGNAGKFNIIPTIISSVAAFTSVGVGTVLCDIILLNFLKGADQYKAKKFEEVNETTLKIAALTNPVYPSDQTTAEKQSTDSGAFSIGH
Method: To verify the efficacy of this compound in humans, dorsal root ganglia were isolated from human organ donors and placed in culture between 3 and 5 hours after cross-clamping the heart. Sensory neurons were cultured for at least 5 days before performing any experiments to allow for satellite cell detachment. For calcium imaging experiments, human nociceptors were exposed to the lionfish venom in the presence of the P2X3 receptor antagonist AF-353 (300 nM), which was introduced in the bath solution (in mM: NaCl 150, KCl 3, Glucose 10, CaCl2) 2, and MgCl2 1; in distilled water, buffered to a pH of 7.3). Cells were incubated with AF-353 for 8-minutes either after an initial application of lionfish venom or before any applications of the venom. Venom was applied in 2-second puffs with a picospritzer as in FIG. 2.

T1 sequence (Q704Y3 whole entry): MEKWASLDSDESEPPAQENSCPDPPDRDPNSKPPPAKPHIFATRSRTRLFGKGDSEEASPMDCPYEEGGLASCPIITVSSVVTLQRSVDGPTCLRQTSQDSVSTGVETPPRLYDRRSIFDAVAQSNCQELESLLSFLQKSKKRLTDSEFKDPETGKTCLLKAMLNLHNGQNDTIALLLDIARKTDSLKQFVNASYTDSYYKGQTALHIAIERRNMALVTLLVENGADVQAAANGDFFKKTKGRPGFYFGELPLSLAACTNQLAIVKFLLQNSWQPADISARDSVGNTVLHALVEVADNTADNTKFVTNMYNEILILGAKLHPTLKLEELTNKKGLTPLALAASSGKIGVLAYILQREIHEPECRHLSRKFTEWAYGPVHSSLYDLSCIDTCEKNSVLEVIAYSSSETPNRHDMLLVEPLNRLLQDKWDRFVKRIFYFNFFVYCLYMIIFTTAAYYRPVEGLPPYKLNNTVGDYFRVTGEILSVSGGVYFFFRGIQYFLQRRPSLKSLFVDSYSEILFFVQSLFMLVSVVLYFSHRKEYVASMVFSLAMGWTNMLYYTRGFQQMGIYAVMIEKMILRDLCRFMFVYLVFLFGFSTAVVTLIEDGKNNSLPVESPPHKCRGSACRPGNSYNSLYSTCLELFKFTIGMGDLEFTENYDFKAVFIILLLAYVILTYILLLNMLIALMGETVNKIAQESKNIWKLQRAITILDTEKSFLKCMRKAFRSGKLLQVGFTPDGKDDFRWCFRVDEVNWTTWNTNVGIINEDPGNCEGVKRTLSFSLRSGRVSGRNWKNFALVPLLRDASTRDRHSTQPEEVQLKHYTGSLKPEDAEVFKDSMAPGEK

SMILES: COc1cc(CNC(=O)CCCC/C=C/C(C)C)ccc1O [capsaicin]
- Proportion of cultured DRG neurons responding to capsaicin alone (TRPV1 [1]): 45/65

SMILES: CC(C)(C)c1ccc(/C=C/C(=O)Nc2ccc3c(c2)OCCO3)cc1 [AMG-9810]
- venom-elicited spontaneous pain behavior over 1 hour after AMG-9810 pretreatment (TRPV1 [2]): independent
- Proportion of cultured DRG neurons responding to capsaicin in the presence of AMG-9810 (TRPV1 [1]): 0/65
- effect on capsaicin-elicited rise in intracellular calcium (sample traces) (TRPV1 [1]): blocked response
- proportion of cells (DRG neurons) responding to the venom in the presence of AMG-9810 (TRPV1 [1]; AMG-9810 10 μM, Fisher exact test P=0.322): 30/32

SMILES: COc1cc(C(C)C)c(Oc2cnc(N)nc2N)cc1I [AF-353]
- venom-elicited intracellular calcium responses in cultured mouse nociceptors (P2X3 receptors): reversibly blocks
- α,β,Me-ATP-elicited calcium responses in cultured mouse nociceptors (P2X3 receptors; selective P2X3 receptor agonist α,β,Me-ATP): reversibly blocks
- pain caused by lionfish venom in vivo (time licking injected paw) (P2X3): effective in reducing or eliminating pain
- venom-induced calcium responses in human nociceptors (P2X3 receptor): do not display calcium responses
